Test results taken from the NIST ThermoML archive (doi:10.1021/je700260f).

Settings: 333.16 K, Liquid, Vibrating tube method

FC(C(F)(F)F)C(F)(F)F [1,1,1,2,3,3,3-heptafluoropropane]
Settings | mass density [kg/m3]
10457 kPa | 1328.7
10483 kPa | 1329
10515 kPa | 1329.4
10537 kPa | 1329.3
10570 kPa | 1329.8
10596 kPa | 1329.9
10624 kPa | 1330.1
10654 kPa | 1330.5
10839 kPa | 1331.8
10866 kPa | 1332.1
10896 kPa | 1332.3
10918 kPa | 1332.5
10947 kPa | 1332.7
10979 kPa | 1332.9
11112 kPa | 1334
11141 kPa | 1334.3
11160 kPa | 1334.5
11186 kPa | 1334.6
11212 kPa | 1334.9
11245 kPa | 1335.1
11275 kPa | 1335.4
11298 kPa | 1335.5
11320 kPa | 1335.7
11353 kPa | 1336
11388 kPa | 1336.3
11415 kPa | 1336.6
11450 kPa | 1336.7
11481 kPa | 1337
11534 kPa | 1337.4
11792 kPa | 1339.3
11824 kPa | 1339.6
11847 kPa | 1339.8
11870 kPa | 1339.9
11897 kPa | 1340.1
11937 kPa | 1340.4
11965 kPa | 1340.6
11989 kPa | 1340.8
12024 kPa | 1341.1
12062 kPa | 1341.3
12090 kPa | 1341.4
12120 kPa | 1341.8
12147 kPa | 1342
12167 kPa | 1342.2
12202 kPa | 1342.3
12226 kPa | 1342.6
12261 kPa | 1342.8
12289 kPa | 1343
12321 kPa | 1343.4
12345 kPa | 1343.5
12385 kPa | 1343.8
12416 kPa | 1344
